Measurements as given in patent US20060257543A1, “Molecules comprising linked organic moieties as flavor modifiers for comestible compositions” (priority 2005, published 2006).
Read-outs that look alike come from different tables or passages of the source.

Legend:
[1] = target: T1, hT1R1/hT1R3 umami receptor expressed in an HEK293 cell line (Homo sapiens, UniProt Q7RTX0+Q7RTX1); assay: In vitro hT1R1/hT1R3 umami taste receptor activation assay (FLIPR, dose response); assay type: cell-based
T1 construct: expressed in transfected cells; host or cells: HEK293 derivative, clone I-17, expression induced with mifepristone
T1 sequence (Q7RTX1 21-841): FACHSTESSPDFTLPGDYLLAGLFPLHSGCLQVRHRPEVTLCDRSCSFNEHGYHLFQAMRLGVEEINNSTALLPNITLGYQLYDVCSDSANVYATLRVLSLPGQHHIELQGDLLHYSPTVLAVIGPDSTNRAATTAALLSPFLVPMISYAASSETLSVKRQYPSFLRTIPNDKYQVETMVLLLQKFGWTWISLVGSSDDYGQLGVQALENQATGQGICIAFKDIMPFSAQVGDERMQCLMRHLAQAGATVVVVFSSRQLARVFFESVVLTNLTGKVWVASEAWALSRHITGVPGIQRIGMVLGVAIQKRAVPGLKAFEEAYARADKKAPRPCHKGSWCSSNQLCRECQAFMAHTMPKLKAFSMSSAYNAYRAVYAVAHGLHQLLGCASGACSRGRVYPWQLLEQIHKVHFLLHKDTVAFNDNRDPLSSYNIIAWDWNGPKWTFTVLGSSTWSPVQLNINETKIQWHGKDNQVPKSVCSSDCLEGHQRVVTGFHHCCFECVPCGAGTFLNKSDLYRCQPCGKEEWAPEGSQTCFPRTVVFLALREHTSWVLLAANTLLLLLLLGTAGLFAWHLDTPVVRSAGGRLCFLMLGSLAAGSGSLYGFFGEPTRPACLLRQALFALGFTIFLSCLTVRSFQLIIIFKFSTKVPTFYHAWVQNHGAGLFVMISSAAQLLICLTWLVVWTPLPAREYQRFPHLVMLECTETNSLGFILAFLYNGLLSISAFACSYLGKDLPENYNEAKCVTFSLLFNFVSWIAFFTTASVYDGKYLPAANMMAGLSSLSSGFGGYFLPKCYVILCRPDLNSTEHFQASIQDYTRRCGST
T1 sequence (Q7RTX0 21-852): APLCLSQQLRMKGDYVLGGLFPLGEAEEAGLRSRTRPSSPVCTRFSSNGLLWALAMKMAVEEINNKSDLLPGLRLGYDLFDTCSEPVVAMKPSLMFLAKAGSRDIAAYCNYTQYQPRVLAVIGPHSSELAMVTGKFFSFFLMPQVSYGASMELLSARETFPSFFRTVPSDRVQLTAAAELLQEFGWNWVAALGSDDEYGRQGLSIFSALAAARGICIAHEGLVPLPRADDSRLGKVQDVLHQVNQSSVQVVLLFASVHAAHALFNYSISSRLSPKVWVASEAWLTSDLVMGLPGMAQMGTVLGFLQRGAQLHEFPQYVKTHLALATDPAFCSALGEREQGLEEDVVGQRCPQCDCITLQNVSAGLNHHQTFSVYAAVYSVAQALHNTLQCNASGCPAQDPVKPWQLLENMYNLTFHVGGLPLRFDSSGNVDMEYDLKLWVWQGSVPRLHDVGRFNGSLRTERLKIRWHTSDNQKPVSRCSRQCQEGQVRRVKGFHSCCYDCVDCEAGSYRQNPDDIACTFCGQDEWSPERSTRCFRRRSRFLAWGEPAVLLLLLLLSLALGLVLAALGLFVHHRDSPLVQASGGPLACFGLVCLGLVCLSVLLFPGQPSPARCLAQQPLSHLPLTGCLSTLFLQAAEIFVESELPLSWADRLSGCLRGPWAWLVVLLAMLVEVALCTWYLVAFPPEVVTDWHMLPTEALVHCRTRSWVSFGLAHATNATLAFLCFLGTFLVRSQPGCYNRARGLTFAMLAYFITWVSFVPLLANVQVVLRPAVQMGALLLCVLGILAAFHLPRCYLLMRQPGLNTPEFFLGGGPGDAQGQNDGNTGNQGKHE
Text: In order to identify new savory flavoring agents and enhancers, including compounds with savory agonist and enhancer activities (dual activity), the tastant compounds of Formula (I) were screened in primary assays and secondary assays including compound dose response and enhancement assay. In a primary assay for potential ability to modulate umami taste, tastant compounds of Formula (I) that can be either savory flavoring agents in their own right or flavor enhancers of MSG are identified and scores of their activities are given as percentage of the maximum MSG intensity (%). In compound dose response, an EC50 is calculated to reflect the potency of the compound as a savory agonist or enhancer.
An HEK293 cell line derivative (see e.g., Chandrashekar, et al., Cell (2000) 100: 703-711) which stably expresses Gα15 and hT1R1/hT1R3 under an inducible promoter (see WO 03/001876 A2) was used to identify compounds with savory tasting properties.
Compounds disclosed in this application were initially selected based on their activity on the hT1R1/hT1R3-HEK293-Gα15 cell line. Activity was determined using an automated fluorometric imaging assay on a FLIPR instrument (Fluorometric Intensity Plate Reader, Molecular Devices, Sunnyvale, Calif.) (designated FLIPR assay). Cells from one clone (designated clone I-17) were seeded into 384-well plates (at approximately 48,000 cells per well) in a medium containing Dulbecco's modified Eagle's medium (DMEM) supplemented with GlutaMAX (Invitrogen, Carlsbad, Calif.), 10% dialyzed fetal bovine serum (Invitrogen, Carlsbad, Calif.), 100 Units/ml Penicillin G, 100 μg/ml Streptomycin (Invitrogen, Carlsbad, Calif.) and 60 pM mifepristone (to induce expression of hT1R1/hT1R3, (see WO 03/001876 A2). I-17 cells were grown for 48 hours at 37° C. I-17 cells were then loaded with the calcium dye Fluo-3AM (Molecular Probes, Eugene, Oreg.), 4 μM in a phosphate buffered saline (D-PBS) (Invitrogen, Carlsbad, Calif.), for 1.5 hours at room temperature. After replacement with 25 μl D-PBS, stimulation was performed in the FLIPR instrument and at room temperature by the addition of 25 μl D-PBS supplemented with different stimuli at concentrations corresponding to twice the desired final level. Receptor activity was quantified by determining the maximal fluorescence increases (using a 480 nm excitation and 535 nm emission) after normalization to basal fluorescence intensity measured before stimulation.
For dose-responses analysis, stimuli were presented in duplicates at 10 different concentrations ranging from 1.5 nM to 30 μM. Activities were normalized to the response obtained with 60 mM monosodium glutamate, a concentration that elicits maximum receptor response. EC50s (concentration of compound that causes 50% activation of receptor) were determined using a non-linear regression algorithm, where the Hill slope, bottom asymptotes and top asymptotes were allow to vary. Identical results were obtained when analyzing the dose-response data using commercially available software for non-linear regression analysis such as GraphPad PRISM (San Diego, Calif.).

[2] = target: T1, hT1R1/hT1R3 umami receptor expressed in an HEK293 cell line; assay: Umami taste enhancement activity assay (EC50 ratio vs. MSG); assay type: cell-based
Text: In umami taste enhancement activity assay experiments, which produce an “EC50 ratio” measurement of how effectively the tastant compounds of the invention enhance the savory flavorant (typically MSG) already in a test solution. A series of measurements of the dose response is run in solutions comprising MSG alone, then a second dose response is run with MSG in combination with predetermined amounts of a candidate compound of Formula (I) at the same time.
In this assay, increasing concentrations of monosodium glutamate (ranging from 12 μM to 81 mM) were presented, in duplicates, in the presence or absence of a fixed concentration of the test compound. Typical compound concentrations tested were 30 μM, 10 μM, 3 μM, 1 μM, 0.3 μM, 0.1 μM and 0.03 μM. The relative efficacy of compounds of Formula (I) at enhancing the receptor was determined by calculating the magnitude of a shift in the EC50 for monosodium glutamate. Enhancement was defined as a ratio (EC50R) corresponding to the EC50 of monosodium glutamate, determined in the absence of the test compound, divided by the EC50 of monosodium glutamate, determined in the presence of the test compound.
Stated alternatively, “EC50 ratio” as compared to MSG is calculated based on the following definitions:
EC50 Ratio vs. MSG=EC50 (MSG)/EC50 (MSG+[Compound]) • wherein “[compound]” refers to the concentration of the compound of Formula (I) used to elicit (or enhance or potentiate) the MSG dose response.
It should be noted that the EC50 ratio measured can depend somewhat on the concentration of the compound itself. Preferred savory enhancers would have a high EC50 Ratio vs. MSG at a low concentration of the compound used. Preferably the EC50 ratio experiments to measure umami enhancement are run at a concentration of a compound of Formula (I) between about 10 μM to about 0.1 μM, or preferably at […] or 3.0 μM.

SMILES | EC50 ([1]; read-out: Umami EC50) [µM] | EC50 ratio (vs. MSG) ([2]; compound @ 1 μM) | EC50 ratio (vs. MSG) ([2]; compound @ 3 μM) | EC50 ([1]; read-out: EC50 for activation of a hT1R1/hT1R3 umami receptor expressed in an HEK293 cell line) [µM] | EC50 ratio (enhanced the effectiveness of monosodium glutamate) ([2]; compound present at 0.03 μM)
O=C(OCCCn1ncc2ccccc2c1=O)c1cccs1 [Example A7] | 6 |  | 3.8 |  | 
CCCC(CCC)NC(=S)c1ccc2c(c1)OCO2 [Example 1, N-(heptan-4-yl)benzo[d][1,3]dioxole-5-carbothioamide] |  |  |  | 8.8 | 3
O=C(SCc1ccccn1)c1ccccc1 [Example A11] | 6.34 |  | 6.5 |  | 
COc1ccc(CNc2ccccn2)cc1 [Example A8] | 11.8 | 3.1 |  |  | 
COc1ccc(CNc2nc3ccccn3n2)cc1 [Example A9] | 11.8 |  | 3.6 |  | 
O=S(=O)(NCc1cc(F)cc2c1OCOC2)c1ccc(-c2ccccn2)s1 [Example A23] | 10.3 |  |  |  | 

Results, then the compound that gave them:

EC50 ([1]; read-out: Umami EC50) [µM] | EC50 ratio (vs. MSG) ([2]; compound @ 1 μM) | EC50 ratio (vs. MSG) ([2]; compound @ 3 μM) | EC50 ([1]; read-out: EC50 for activation of a hT1R1/hT1R3 umami receptor expressed in an HEK293 cell line) [µM] | EC50 ratio (enhanced the effectiveness of monosodium glutamate) ([2]; compound present at 0.03 μM) | SMILES
4.53 | 4.7 |  |  |  | S=C(NCCc1ccccn1)Nc1cccc(Cl)c1 [Example A17]
5.14 | 2.81 |  |  |  | c1ccc2oc(SCc3cn4ccccc4n3)nc2c1 [Example A12]
5.19 |  | 3.6 |  |  | c1ccc2sc(SCc3cn4ccsc4n3)nc2c1 [Example A13]
3.5 |  | 4.4 |  |  | O=C(OCCCc1nc2ccccc2[nH]1)c1cccs1 [Example A6]
3.71 |  |  |  |  | CC(C)(C)c1ccc(NC(=S)NCc2ccccn2)cc1 [Example A16]
